Data as given in patent US5391540A, “Substituted pyridine compounds” (Rohm and Haas Company, priority 1993, dated 1995).

Columns and labels:
Experiment in all cases: Pre-emergent herbicidal activity (Table A)
Type in all cases: in vivo
Barnyardgrass = settings: Echinochloa crus-galli, pre-emergence, Bygr, 11.2 kg/ha, 10-14 days, read-out: herbicidal rating (% inhibition)
How it was run: (§1)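 Seeds or perennial propagules set on compacted topsoil, then covered with soil mixed with a known amount of test compound applied in acetone or water carrier. Ratings assigned on a scale based on percent inhibition of each species.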

Canada thistle = settings: Cirsium arvense, pre-emergence, Cath, 11.2 kg/ha, 10-14 days, read-out: herbicidal rating (% inhibition)
How it was run: as §1

Cocklebur = settings: Xanthium strumarium, pre-emergence, Cobu, 11.2 kg/ha, 10-14 days, read-out: herbicidal rating (% inhibition)
How it was run: as §1

Common Lambsquarters = settings: Chenopodium album, pre-emergence, Colq, 11.2 kg/ha, 10-14 days, read-out: herbicidal rating (% inhibition)
How it was run: as §1

Downy Brome = settings: Bromus tectorum, pre-emergence, Dobr, 11.2 kg/ha, 10-14 days, read-out: herbicidal rating (% inhibition)
How it was run: as §1

Morningglory = settings: Ipomoea, pre-emergence, Mogl, 11.2 kg/ha, 10-14 days, read-out: herbicidal rating (% inhibition)
How it was run: as §1

Pennsylvania Smartweed = settings: pre-emergence, Pesw, 11.2 kg/ha, 10-14 days, read-out: herbicidal rating (% inhibition)
How it was run: as §1

Quackgrass = settings: pre-emergence, Rhqg, 11.2 kg/ha, 10-14 days, read-out: herbicidal rating (% inhibition)
How it was run: as §1

Rhizome Johnsongrass = settings: Sorghum halepense, pre-emergence, Rhjg, 11.2 kg/ha, 10-14 days, read-out: herbicidal rating (% inhibition)
How it was run: as §1

Velvetleaf = settings: Abutilon theophrasti, pre-emergence, Vele, 11.2 kg/ha, 10-14 days, read-out: herbicidal rating (% inhibition)
How it was run: as §1

Yellow Nutsedge = settings: Cyperus, pre-emergence, Yens, 11.2 kg/ha, 10-14 days, read-out: herbicidal rating (% inhibition)
How it was run: as §1

| Compound | inhibition at 11200 g/ha (Barnyardgrass) [%] | inhibition at 11200 g/ha (Canada thistle) [%] | inhibition at 11200 g/ha (Cocklebur) [%] | inhibition at 11200 g/ha (Common Lambsquarters) [%] | inhibition at 11200 g/ha (Downy Brome) [%] | inhibition at 11200 g/ha (Morningglory) [%] | inhibition at 11200 g/ha (Pennsylvania Smartweed) [%] | inhibition at 11200 g/ha (Quackgrass) [%] | inhibition at 11200 g/ha (Rhizome Johnsongrass) [%] | inhibition at 11200 g/ha (Velvetleaf) [%] | inhibition at 11200 g/ha (Yellow Nutsedge) [%] |
| --- | --- | --- | --- | --- | --- | --- | --- | --- | --- | --- | --- |
| COC(=O)c1c(OC)nc(C(F)(F)F)c(C(=O)NCCO)c1CC(C)C [Compound 38, 3-pyridinecarboxylic acid, 5-[[(2-hydroxyethyl)amino]carbonyl]-2-methoxy-4-(2-methylpropyl)-6-(trifluoromethyl)-, methyl ester] | 0 to 24 | 0 to 24 | 0 to 24 | 0 to 24 | 0 to 24 | 0 to 24 | 0 to 24 | 0 to 24 | 0 to 24 | 0 to 24 | 0 to 24 |
| COc1nc(C(F)(F)F)c(C(=O)SC)c(C2CC2)c1C(=O)SC [Compound 12, 3,5-pyridinedicarbothioic acid, 4-cyclopropy1-2-methoxy-6-(trifluoromethyl)-, S,S-dimethyl ester] | 75 to 100 | 25 to 49 | 25 to 49 | 75 to 100 | 75 to 100 | 75 to 100 | 75 to 100 | 75 to 100 | 0 to 24 | 75 to 100 | 25 to 49 |
| COC(=O)c1c(OC)nc(C(F)(F)F)c(C(=O)OC)c1CSC [Compound 89, 3,5-pyridinedicarboxylic acid, 2-methoxy-4-[(methylthio)methyl]-6-(trifluoromethyl)-, dimethyl ester] | 75 to 100 | 75 to 100 | 25 to 49 | 75 to 100 | 25 to 49 | 75 to 100 | 75 to 100 | 25 to 49 | 0 to 24 | 75 to 100 | 0 to 24 |
| CNC(=O)c1c(OC)nc(C(F)(F)F)c(C(=O)OC)c1CC(C)C [Compound 21, 3-pyridinecarboxylic acid, 6-methoxy-5-[(methylamino)carbonyl]-4-(2-methylpropyl)-2-(trifluoromethyl)-, methyl ester] | 75 to 100 | 0 to 24 | 0 to 24 | 75 to 100 | 75 to 100 | 0 to 24 | 0 to 24 | 75 to 100 | 0 to 24 | 0 to 24 | 0 to 24 |
| CCOC(=O)c1c(OCC)nc(C(F)(F)F)c(C(=O)OCC)c1CC(C)C [Compound 39, 3,5-pyridinedicarboxylic acid, 2-ethoxy-4-(2-methylpropyl)-6-(trifluoromethyl)-, diethyl ester] | 75 to 100 | 0 to 24 | 0 to 24 | 75 to 100 | 75 to 100 | 25 to 49 | 75 to 100 | 0 to 24 | 0 to 24 | 50 to 74 | 0 to 24 |
| COc1nc(C(F)(F)F)c(C(=O)n2cccn2)c(C2CCC2)c1C(=O)n1cccn1 [Compound 59, 4-cyclobuty1-2-methoxy-3,5-bis(1H-pyrazo1-1-ylcarbonyl)-6-(trifluoromethyl)-pyridine] | 75 to 100 | 0 to 24 | 0 to 24 | 75 to 100 | 75 to 100 | 75 to 100 | 75 to 100 | 75 to 100 | 0 to 24 | 50 to 74 | 0 to 24 |
| COC(=O)c1c(OC)nc(C(F)(F)F)c(C(=O)N2CCCC2)c1CC(C)C [Compound 66, 3-pyridinecarboxylic acid, 2-methoxy-4-(2-methylpropyl)-5-(1-pyrrolidinylcarbonyl)-6-(trifluoromethyl)-, methyl ester] | 75 to 100 | 75 to 100 | 0 to 24 | 75 to 100 | 75 to 100 | 50 to 74 | 25 to 49 | 75 to 100 | 0 to 24 | 25 to 49 | 0 to 24 |
